In patent US20230134760A1, “CAR AND NRF2 DUAL ACTIVATOR AGENTS FOR CYCLOPHOSPHAMIDE-BASED AND DOXORUBICIN-BASED TREATMENTS OF CANCER” (priority 2020, published 2023):

Legend:
Assay type in all cases: cell-based
BT549 cells [1] = assay: Oxidative stress imaging (DFDA) in BT549 cells; details: BT549, DL7076 5 μM + DOX
HO-1 = HO-1 expression in BT549 cells; details: BT549, 10 μM, 24 hours
Protocol: Immortalized triple negative breast cancer cell lines MDA-MB-231 and BT549 were obtained from ATCC (Rockville, Md.). Additionally, the h9c2 cell line was purchased from ATCC (Rockville, Md.). […] Human iPSC-derived cardiomyocytes were maintained in Mtesr plus and supplemented according to protocol. These cells were treated for 2 hrs or an overnight as indicated. Following a 2 hr pretreatment, cells were co-treated with DOX at indicated concentrations for 6 or 22 hours. Following the overnight treatments, RNA or protein was isolated. HPH were seeded in collagen-coated 24 well plates and pretreated for 24 hrs. BT549 were seeded on inverted coverslips. After a 24 hr pretreatment, hepatocytes were co-administered as indicated and coverslips were inserted. The cell lines were used for less than 60 passages. After 24 h treatment, HPH, BT549, MDA-MB-231, and H9c2 cells were washed and a phenol-chloroform extraction was used to isolate total RNA with the TRIzol reagent (ThermoFisher, Rockford, Ill.). Reverse transcription was performed on extracted RNA (1 μg) to produce cDNA using the High Capacity cDNA Archive kit according to manufacturer's instructions (Applied Biosystems, Foster, Calif.). […] Quantification of expression changes was done by the 2^ΔΔCt method, normalizing to GAPDH as the housekeeping gene and determining the fold change compared to control values (n=3). […]

BT549 cells [2] = assay: Phosphorylated H2AX imaging, BT549 cells from multi-organ co-culture; details: CPA/DOX + DL7076
Protocol: Additionally, HPH were cultured in collagen-coated 6-well plates and pre-treated as described in the previous co-culture system. BT549 and H9c2 cells were plated on similar modified coverslips 0.8×10^5 cells and allowed to attach for 24 hours during hepatocyte pre-treatment. […] Following pre-treatment, BT549 coverslips were inserted adjacent to H9c2 coverslips over the sandwich cultured HPH as depicted in FIG. 43a. […] Both BT549 and H9c2 cells were harvested at indicated time points and assess for viability, apoptosis, and DNA damage as detailed further. H9c2 rat cardiomyocytes seeded at 0.8×10^5 in 24-well plates. […] Cells were washed 3× with PBS. […] The oxidation of DFDA to the fluorescent dichlorofluorescein was viewed using fluorescence microscopy (Nikon Eclipse Ti) with a FITC filter at […] and quantified using Brightspot detection for fluorescent detection of triplicate images and normalized to the vehicle control (0.1% DMSO). […] Phosphorylation was calculated through fluorescence intensity all normalized to the vehicle control. […] The coverslips were visualized at 10× magnification using fluorescence microscopy (Nikon Eclipse Ti) and the amount of phosphorylation was quantified as mean intensity using brightspot detection of quadruplet images of the whole well and normalized to the vehicle control (0.1% DMSO).

O=C(NCCN=C=S)c1c(-c2ccc3ccccc3c2)nc2sccn12 [DL7076, N-(2-Isothiocyanatoethyl)-6-(naphthalen-2-yl)imidazo[2,1-b]thiazole-5-carboxamide]
ROS with cotreatment (BT549 cells [1]): significant ROS without reduction
HO-1 induction (HO-1): 1.5 fold
H2AX phosphorylation (DNA damage) (BT549 cells [2]): effectively enhanced the CPA/DOX-mediated DNA damage
